Where two headings read alike, the source gives them in different places.
Assay: Plasma TPTD concentration and pharmacokinetics (Rat PTH IRMA Kit, non-compartmental model)
Assay type: in vivo, rabbit
Settings: for level at 1 h / level at 2 h / level at 5 min / level at 0.25 h / level at 0.5 h: female, New Zealand White (Kbl:NZW), rabbit, plasma, sc, IRMA, mean; for AUC / Cmax / Tmax / half-life: in vivo; for half-life: read-out: T1/2 (elimination half-life) of plasma TPTD (converted)
Excerpt: Seventeen female New Zealand White rabbits (Kbl:NZW) were purchased from Kitayama Labs (Nagano, Japan) and were allowed to acclimatize with free access to water and food for 6 days before use. Throughout the experimental study, the animals were housed individually under a 12-h light/dark cycle with free access to water, but their food intake was restricted to 120g /day (LRC4, standard diet for rabbits; Oriental Yeast, Tokyo, Japan). The animals at 6 months of age were divided into 5 groups and were subcutaneously injected with 20 or 40 μg/kg of TPTD once-daily (D20 group [n = 3] and D40 group [n = 3], 140 or 280 μg/kg of TPTD once-weekly (W140 group [n = 3] and W280 group [n = 4]) for four weeks (Table 1). For the high-dose administration of TPTD, the dosage in once-daily treatment was set at 40 μg/kg/day based on a previous study, while the dosage of once-weekly TPTD treatment was set at 280 μg/kg/week; thus, the cumulative dose of TPTD each week was the same with the two treatment frequencies. In the W140 and W280 groups, saline was administered every day, except for the days on which TPTD was administered. Saline injections were administered to control animals (C group, n = 4) once daily and to each group as a vehicle.
[…] The samples were centrifuged at 1600 x g, at 4°C for 10 minutes and plasma samples were collected in order to measure the concentration of TPTD. […]
Teriparatide acetate was synthesized at Asahi Kasei Pharma Corporation (Tokyo, Japan) and was used as a standard substance. The teriparatide acetate concentration in the rabbit plasma was quantified using a Rat PTH IRMA Kit (Immutopics, Inc., San Clemente, CA) according to the manufacturer’s instructions. The pharmacokinetic parameters were calculated using a non-compartmental model (Phoenix WinNonlin; Pharsight, Mountain View, CA).

[1] = 20 ug/kg, rabbit plasma, D20 (20 μg/kg sc once-daily), n=3, mean ± SD
[2] = 40 ug/kg, rabbit plasma, D40 (40 μg/kg sc once-daily), n=3, mean ± SD
[3] = 140 ug/kg, rabbit plasma, W140 (140 μg/kg sc once-weekly), n=3, mean ± SD
[4] = 280 ug/kg, rabbit plasma, W280 (280 μg/kg sc once-weekly), n=4, mean ± SD

- level at 1 h (140 ug/kg, Day 22, 1 hour, W140 (140 μg/kg sc once-weekly), n=3): 147 ng/mL
- level at 2 h (140 ug/kg, Day 22, 2 hour, W140 (140 μg/kg sc once-weekly), n=3): 37.8 ng/mL
- level at 5 min (280 ug/kg, Day 1, 5 min, W280 (280 μg/kg sc once-weekly), n=4): 60.6 ng/mL
- level at 0.25 h (280 ug/kg, Day 1, 15 min, W280 (280 μg/kg sc once-weekly), n=4): 177 ng/mL
- level at 0.5 h (280 ug/kg, Day 1, 30 min, W280 (280 μg/kg sc once-weekly), n=4): 295 ng/mL
- level at 1 h (280 ug/kg, Day 1, 1 hour, W280 (280 μg/kg sc once-weekly), n=4): 255 ng/mL
- level at 2 h (280 ug/kg, Day 1, 2 hour, W280 (280 μg/kg sc once-weekly), n=4): 87.4 ng/mL
- level at 5 min (280 ug/kg, Day 22, 5 min, W280 (280 μg/kg sc once-weekly), n=4): 67.7 ng/mL
- level at 0.25 h (280 ug/kg, Day 22, 15 min, W280 (280 μg/kg sc once-weekly), n=4): 232 ng/mL
- level at 0.5 h (280 ug/kg, Day 22, 30 min, W280 (280 μg/kg sc once-weekly), n=4): 356 ng/mL
- level at 1 h (280 ug/kg, Day 22, 1 hour, W280 (280 μg/kg sc once-weekly), n=4): 280 ng/mL
- level at 2 h (280 ug/kg, Day 22, 2 hour, W280 (280 μg/kg sc once-weekly), n=4): 62.4 ng/mL
- AUC [1]: 21.1 ± 3.67 ng·h/mL
- Cmax [1]: 19.8 ± 5.67 ng/mL
- Tmax [1]: 30 min
- half-life (20 ug/kg, rabbit plasma, D20 (20 μg/kg sc once-daily), n=3, non-compartmental, mean ± SD): 26.4 ± 9 min
- AUC [2]: 46.8 ± 10.7 ng·h/mL
- Cmax [2]: 34.3 ± 8.19 ng/mL
- Tmax [2]: 30 min
- half-life (40 ug/kg, rabbit plasma, D40 (40 μg/kg sc once-daily), n=3, non-compartmental, mean ± SD): 55.8 ± 19.2 min
- AUC [3]: 188 ± 35.5 ng·h/mL
- Cmax [3]: 133 ± 28 ng/mL
- Tmax [3]: 40.2 ± 17.4 min
- half-life (140 ug/kg, rabbit plasma, W140 (140 μg/kg sc once-weekly), n=3, non-compartmental, mean ± SD): 55.8 ± 9.6 min
- AUC [4]: 390 ± 75.6 ng·h/mL
- Cmax [4]: 315 ± 67.8 ng/mL
- Tmax [4]: 45 ± 17.4 min
- half-life (280 ug/kg, rabbit plasma, W280 (280 μg/kg sc once-weekly), n=4, non-compartmental, mean ± SD): 41.4 ± 16.2 min
- Tmax post-dose (rabbit plasma, D20 (20 μg/kg sc once-daily)): 30 min
- Tmax post-dose (rabbit plasma, D40 (40 μg/kg sc once-daily)): 30 min
- estimated Tmax post-dose (rabbit plasma, W140 (140 μg/kg sc once-weekly)): 40 min
- T1/2 (elimination half-life) of plasma TPTD (rabbit plasma, W140 (140 μg/kg sc once-weekly), n=3, non-compartmental, mean ± SD): 55.8 ± 9.6 min
- estimated Tmax post-dose (rabbit plasma, W280 (280 μg/kg sc once-weekly)): 45 min
SMILES: CC[C@H](C)[C@H](NC(=O)[C@H](CCC(=O)O)NC(=O)[C@H](CO)NC(=O)[C@@H](NC(=O)[C@@H](N)CO)C(C)C)C(=O)N[C@@H](CCC(N)=O)C(=O)N[C@@H](CC(C)C)C(=O)N[C@@H](CCSC)C(=O)N[C@@H](Cc1cnc[nH]1)C(=O)N[C@@H](CC(N)=O)C(=O)N[C@@H](CC(C)C)C(=O)NCC(=O)N[C@@H](CCCCN)C(=O)N[C@@H](Cc1cnc[nH]1)C(=O)N[C@@H](CC(C)C)C(=O)N[C@@H](CC(N)=O)C(=O)N[C@@H](CO)C(=O)N[C@@H](CCSC)C(=O)N[C@@H](CCC(=O)O)C(=O)N[C@@H](CCCN=C(N)N)C(=O)N[C@H](C(=O)N[C@@H](CCC(=O)O)C(=O)N[C@@H](Cc1c[nH]c2ccccc12)C(=O)N[C@@H](CC(C)C)C(=O)N[C@@H](CCCN=C(N)N)C(=O)N[C@@H](CCCCN)C(=O)N[C@@H](CCCCN)C(=O)N[C@@H](CC(C)C)C(=O)N[C@@H](CCC(N)=O)C(=O)N[C@@H](CC(=O)O)C(=O)N[C@H](C(=O)N[C@@H](Cc1cnc[nH]1)C(=O)N[C@@H](CC(N)=O)C(=O)N[C@@H](Cc1ccccc1)C(=O)O)C(C)C)C(C)C [TPTD, Teriparatide]
